Measurements reported in patent publication US5059624A, “Guanidine derivatives having hypotensive activity, composition containing them and process for obtaining them” (Consiglio Nazionale Delle Ricerche, priority 1988, dated 1991).
Where two headings read alike, the source gives them in different places.

Key:
[1] = Lethal dose 50 (LD50) through i.p. route in mice; conditions: mouse, in vivo, ip
Protocol: The lethal dose 50 (LD50) of guanido-I through i.p. route in mice turned out to be 57 mg±3.6 per kg.
The lethal dose 50 (LD50) of the diguanido-II through i.p. route in mice, turned out to be 7 mg±0.6 per kg.

cardiovascular responses = test: Interaction and pretreatment experiments with diguanido-II (cardiovascular and respiratory responses); type: in vivo

Protocol for male Wistar rats: In order to check its activity, diguanido-II was dissolved in a 0.9 % sodium chloride solution and administered through "rapid" i.v. route in male Wistar rats, under general anaesthesia obtained by means of 10% ethyl urethan (i ml/hg).
The active ingredients called guanido-III, -IV, -V, as well as agmatine and galegine, were also tested, after having been administered through "rapid" i.v. route in male Wistar rats (weighing average 280±5 g) under general anaesthesia obtained by means of 10% ethyl uretan (1 ml/hg, i.p.). The general experimental conditions were exactly the same as previously mentioned for guanido-I and diguanido-II, so that the cardiovascular and respiratory effects could be compared.
The parameters measured are as follows: systolic and diastolic systemic arterial pressure (AP), heart rate (HR), maximum rate of increase in the left ventricular isovolumetric pressure (dp/dt), respiratory frequency (RF) and tidal volume (TV). The doses (in μg/kg body weight, referred to the active substance) varied from 50 μg/kg to 6,400 μg/kg (ratio=2.0); in some cases higher does have been employed.

COc1ccc([C@@H]2[C@@H](C(=O)NCCCCNC(=N)NCC=C(C)C)[C@@H](C(=O)NCCCCNC(=N)NCC=C(C)C)[C@@H]2c2ccc(OC)c(OC)c2)cc1OC [diguanido-II]
Δ AF (male Wistar rats; 50 μg/kg i.v.): +18.8 ± 3.40 ml/min
Δ AF % (male Wistar rats; 50 μg/kg i.v.): +43 ± 3%
Δ AP % DIAST (male Wistar rats; 50 μg/kg i.v.): +11.0 ± 1.7%
Δ AP % SYST (male Wistar rats; 50 μg/kg i.v.): +15.0 ± 2.7%
Δ AP DIAST (male Wistar rats; 50 μg/kg i.v.): +9.8 ± 1.7 mmHg
Δ AP SYST (male Wistar rats; 50 μg/kg i.v.): +17.2 ± 2.4 mmHg
Δ HR (male Wistar rats; 50 μg/kg i.v.): -9 ± 3 beats/min
Δ HR % (male Wistar rats; 50 μg/kg i.v.): -3 ± 1%
Δ SV (male Wistar rats; 50 μg/kg i.v.): +72.6 ± 5 μl
Δ SV % (male Wistar rats; 50 μg/kg i.v.): +61 ± 5%
Δ TV (male Wistar rats; 50 μg/kg i.v.): +13 ± 3%
Δ dp/dt (male Wistar rats; 50 μg/kg i.v.): +1070 ± 90 mmHg/sec
Δ dp/dt % (male Wistar rats; 50 μg/kg i.v.): +17 ± 4%
Δ AF (male Wistar rats; 100 μg/kg i.v.): +10.8 ± 1.20 ml/min
Δ AF % (male Wistar rats; 100 μg/kg i.v.): +25 ± 1%
Δ AP % DIAST (male Wistar rats; 100 μg/kg i.v.): +11.0 ± 1.1%
Δ AP % SYST (male Wistar rats; 100 μg/kg i.v.): +10.0 ± 2.6%
Δ AP DIAST (male Wistar rats; 100 μg/kg i.v.): +10.2 ± 1.1 mmHg
Δ AP SYST (male Wistar rats; 100 μg/kg i.v.): +11.7 ± 2.5 mmHg
Δ HR (male Wistar rats; 100 μg/kg i.v.): -10 ± 1 beats/min
Δ HR % (male Wistar rats; 100 μg/kg i.v.): -3 ± 1%
Δ SV (male Wistar rats; 100 μg/kg i.v.): +19.8 ± 6 μl
Δ SV % (male Wistar rats; 100 μg/kg i.v.): +17 ± 6%
Δ TV (male Wistar rats; 100 μg/kg i.v.): +4 ± 1%
Δ dp/dt (male Wistar rats; 100 μg/kg i.v.): +1129 ± 82 mmHg/sec
Δ dp/dt % (male Wistar rats; 100 μg/kg i.v.): +18 ± 1%
Δ AF (male Wistar rats; 200 μg/kg i.v.): -13.8 ± 4.20 mL/min
Δ AF % (male Wistar rats; 200 μg/kg i.v.): -32 ± 4%
Δ AP % DIAST (male Wistar rats; 200 μg/kg i.v.): -9.0 ± 1.8%
Δ AP % SYST (male Wistar rats; 200 μg/kg i.v.): -13.0 ± 1.4%
Δ AP DIAST (male Wistar rats; 200 μg/kg i.v.): -13.1 ± 1.8 mmHg
Δ AP SYST (male Wistar rats; 200 μg/kg i.v.): -14.4 ± 1.4 mmHg
Δ HR (male Wistar rats; 200 μg/kg i.v.): -13 ± 4 beats/min
Δ HR % (male Wistar rats; 200 μg/kg i.v.): -4 ± 0.3%
Δ SV (male Wistar rats; 200 μg/kg i.v.): +23.1 ± 6 μl
Δ SV % (male Wistar rats; 200 μg/kg i.v.): +19 ± 6%
Δ TV (male Wistar rats; 200 μg/kg i.v.): +3 ± 2%
Δ dp/dt (male Wistar rats; 200 μg/kg i.v.): +1369 ± 170 mmHg/sec
Δ dp/dt % (male Wistar rats; 200 μg/kg i.v.): +21 ± 4%
Δ AF (male Wistar rats; 400 μg/kg i.v.): -14.3 ± 5.7 mL/min
Δ AF % (male Wistar rats; 400 μg/kg i.v.): -33 ± 6%
Δ AP % DIAST (male Wistar rats; 400 μg/kg i.v.): -18.0 ± 1.4%
Δ AP % SYST (male Wistar rats; 400 μg/kg i.v.): -18.0 ± 1.9%
Δ AP DIAST (male Wistar rats; 400 μg/kg i.v.): -17.0 ± 1.4 mmHg
Δ AP SYST (male Wistar rats; 400 μg/kg i.v.): -19.8 ± 1.9 mmHg
Δ HR (male Wistar rats; 400 μg/kg i.v.): -16 ± 5 beats/min
Δ HR % (male Wistar rats; 400 μg/kg i.v.): -5 ± 2%
Δ SV (male Wistar rats; 400 μg/kg i.v.): -46.2 ± 4 µL
Δ SV % (male Wistar rats; 400 μg/kg i.v.): -39 ± 4%
Δ TV (male Wistar rats; 400 μg/kg i.v.): -51 ± 7%
Δ dp/dt (male Wistar rats; 400 μg/kg i.v.): +2615 ± 181 mmHg/sec
Δ dp/dt % (male Wistar rats; 400 μg/kg i.v.): +41 ± 5%
Δ AF (male Wistar rats; 800 μg/kg i.v.): -25.0 ± 6.1 mL/min
Δ AF % (male Wistar rats; 800 μg/kg i.v.): -57 ± 6%
Δ AP % DIAST (male Wistar rats; 800 μg/kg i.v.): -34.0 ± 3.1%
Δ AP % SYST (male Wistar rats; 800 μg/kg i.v.): -27.0 ± 3.6%
Δ AP DIAST (male Wistar rats; 800 μg/kg i.v.): -31.2 ± 3.1 mmHg
Δ AP SYST (male Wistar rats; 800 μg/kg i.v.): -30.0 ± 3.6 mmHg
Δ HR (male Wistar rats; 800 μg/kg i.v.): -16 ± 5.5 beats/min
Δ HR % (male Wistar rats; 800 μg/kg i.v.): -5 ± 2%
Δ SV (male Wistar rats; 800 μg/kg i.v.): -85.8 ± 9 µL
Δ SV % (male Wistar rats; 800 μg/kg i.v.): -72 ± 9%
Δ TV (male Wistar rats; 800 μg/kg i.v.): -93 ± 8%
Δ dp/dt (male Wistar rats; 800 μg/kg i.v.): +3282 ± 269 mmHg/sec
Δ dp/dt % (male Wistar rats; 800 μg/kg i.v.): +51 ± 7%
Δ AF (male Wistar rats; 1600 μg/kg i.v.): -36.1 ± 4.8 mL/min
Δ AF % (male Wistar rats; 1600 μg/kg i.v.): -83 ± 5%
Δ AP % DIAST (male Wistar rats; 1600 μg/kg i.v.): -47.0 ± 6.8%
Δ AP % SYST (male Wistar rats; 1600 μg/kg i.v.): -36.0 ± 5.3%
Δ AP DIAST (male Wistar rats; 1600 μg/kg i.v.): -43.4 ± 6.8 mmHg
Δ AP SYST (male Wistar rats; 1600 μg/kg i.v.): -41.1 ± 5.3 mmHg
Δ HR (male Wistar rats; 1600 μg/kg i.v.): -30 ± 6 beats/min
Δ HR % (male Wistar rats; 1600 μg/kg i.v.): -9 ± 3%
Δ SV (male Wistar rats; 1600 μg/kg i.v.): -97.4 ± 8 µL
Δ SV % (male Wistar rats; 1600 μg/kg i.v.): -82 ± 8%
Δ TV (male Wistar rats; 1600 μg/kg i.v.): -98 ± 5%
Δ dp/dt (male Wistar rats; 1600 μg/kg i.v.): +3676 ± 264 mmHg/sec
Δ dp/dt % (male Wistar rats; 1600 μg/kg i.v.): +57 ± 6%
Δ AF (male Wistar rats; 3200 μg/kg i.v.): -41.0 ± 6.9 mL/min
Δ AF % (male Wistar rats; 3200 μg/kg i.v.): -94 ± 7%
Δ AP % DIAST (male Wistar rats; 3200 μg/kg i.v.): -58.0 ± 4.2%
Δ AP % SYST (male Wistar rats; 3200 μg/kg i.v.): -42.0 ± 6.5%
Δ AP DIAST (male Wistar rats; 3200 μg/kg i.v.): -53.0 ± 4.2 mmHg
Δ AP SYST (male Wistar rats; 3200 μg/kg i.v.): -47.8 ± 6.5 mmHg
Δ HR (male Wistar rats; 3200 μg/kg i.v.): -41 ± 8 beats/min
Δ HR % (male Wistar rats; 3200 μg/kg i.v.): -12 ± 3%
Δ SV (male Wistar rats; 3200 μg/kg i.v.): -117.2 ± 8 µL
Δ SV % (male Wistar rats; 3200 μg/kg i.v.): -98 ± 8%
Δ TV (male Wistar rats; 3200 μg/kg i.v.): -100%
Δ dp/dt (male Wistar rats; 3200 μg/kg i.v.): +4708 ± 430 mmHg/sec
Δ dp/dt % (male Wistar rats; 3200 μg/kg i.v.): +73 ± 9%
reflected tachycardia (in words) (male Wistar rats; all dose levels, i.v., rat): does not cause any reflected tachycardia
bradycardia / reduction of heart rate (in words) (male Wistar rats; all doses, i.v., rat): reduction of heart rate (HR), at all doses
action on the heart inotropism (in words) (male Wistar rats; i.v., rat): a constant stimulating action on the heart inotropism
hypotensive effect with respect to guanido-I (in words) (male Wistar rats; i.v., rat, vs guanido-I): higher pharmacological power as to hypotensive effect
effects on AP, AF, RF and TV (in words) (male Wistar rats; i.v., increase at 50-100 or 50-200 μg/kg, decrease up to 3,200 μg/kg): biphasic effects on AP, AF, RF and TV
LD50 [1]: 7 mg/kg
cardiovascular responses after previous treatment with Hexameton (cardiovascular responses; previous treatment with Hexameton (ganglioplegic)): caused an increase in the cardiovascular responses
cardiovascular responses to acetylcholine and isoproterenol after previous treatment (cardiovascular responses; previous treatment with diguanido-II, agonists i.v., linear with agonist dose): increased the cardiovascular responses to administration, through i.v. route, of acetylcholine and isoproterenol
cardiovascular responses to nor-adrenaline and adrenaline after previous treatment (cardiovascular responses; previous treatment with diguanido-II, hypertensive doses of agonists): decreased the cardiovascular responses induced by hypertensive doses of nor-adrenaline and of adrenaline
